This is an account of results in US9567345B2, “Pharmaceutically active pyrazolo-triazine derivatives” (LEAD DISCOVERY CENTER GMBH, priority 2012, dated 2017).

Common to all, as to type: biochemical
The target of one experiment is T1, CDK2/CycA (Homo sapiens, UniProt P24941).
T1 construct: purchased Proqinase
Briefly: CDK2 Enzymatic Activity Assay (Lance Kinase Activity Assay, FRET). The note with it: Table 5B, class symbols per IC50 [nM] ranges of b581; read-out: CDK2: Selectivity of CDK7 inhibition over CDK2 inhibition. How it is done: This protocol describes how the Lance Kinase Activity Assay was performed to determine IC50 values of compounds of general formula (I) against CDK/Cyclin complexes. The principle behind this enzymatic assay is based upon the phosphorylation of the Ulight-Peptide Substrat. It is detected by using a specific EU-labeled anti-phospho peptide antibody.
Binding of an inhibitor to the kinase prevents phosphorylation of the Ulight-MBP Substrat, resulting in a loss of FRET.
CDK2 Enzymatic Activity Assay
The compounds of general formula (I) exemplary summarized in Table 1 were diluted from a 10 mM DMSO stock solution 1:10 in a total volume of 15 μl DMSO. This compound predilution was then serial diluted 1:3 over 8 steps in DMSO and briefly spun down. Each compound solution was now diluted 1:20 in Enzymatic Buffer (HEPES: 50 mM, pH: 7.5; MgCl2: 10 mM; EGTA: 1 mM; DTT: 2 mM; Tween-20: 0.01%), mixed thoroughly and spun down.
For positive controls, 2 μl of DMSO working solution were mixed with 6 μl CDK2/CycA/substrate working solution and 2 μl ATP working solution. Positive and negative controls were calculated from at least 8 different wells. The 384 well plates were mixed in a Teleshaker plate mixer (Beckman Coulter, Brea, Calif., USA) at 2000 rpm for 40 sec, and incubated for 1 h at room temperature before addition of 10 μl LANCE Detection Buffer (EDTA: […]; Eu-Anti-P-MBP: 4 nM) per well. Plates were mixed in a Teleshaker plate mixer (Beckman Coulter, Brea, Calif., USA) at 2000 rpm for 40 sec, followed by incubation with Detection Buffer for 1 h, and reading. […] IC50 values were determined from the sigmoidal dose response curves with the software Quattro Workflow (Quattro GmbH, Munich, Germany).

In another experiment the target is CDK9/Cyclin T1 (Homo sapiens, UniProt P50750). Briefly: CDK9 Enzymatic Activity Assay (Lance Kinase Activity Assay, FRET). The note with it: Table 5B, class symbols per IC50 [nM] ranges of b581; read-out: CDK9: Selectivity of CDK7 inhibition over CDK9 inhibition. The gist of the method: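 CDK9/cyclin T1 phosphorylation of a ULight-MBP peptide was run for 1 h at room temperature in pH 7.5 HEPES buffer with MgCl2, EGTA, DTT and Tween-20. It was followed by 1 h with Eu-anti-phospho-MBP antibody (4 nM) in EDTA detection buffer. TR-FRET loss gave IC50 from 8-point, 1:3 sigmoidal dose-response curves.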

The target in a further experiment is CDK7/CycH/Mat1 (Homo sapiens, UniProt P50613). The experiment can be described thus: CDK7 Enzymatic Activity Assay (Lance Kinase Activity Assay, FRET). The note with it: CDK7/CycH/Mat1, 25 μM ATP final; class ranges; read-out: CDK7: IC50 [nM] for CDK7 inhibition. The gist of the method: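 Ulight-MBP peptide phosphorylation by CDK7/CycH/Mat1 in HEPES 50 mM pH 7.5, MgCl2, EGTA, DTT, Tween-20; 1 h at room temperature, then EDTA stop with Eu-anti-phospho-MBP antibody for 1 h and TR-FRET read. Compounds in 8-point 1:3 DMSO series; IC50 from sigmoidal dose-response fit.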

Some results are limits rather than exact numbers.

CDK9/Cyclin T1, sequence (P50750 whole entry): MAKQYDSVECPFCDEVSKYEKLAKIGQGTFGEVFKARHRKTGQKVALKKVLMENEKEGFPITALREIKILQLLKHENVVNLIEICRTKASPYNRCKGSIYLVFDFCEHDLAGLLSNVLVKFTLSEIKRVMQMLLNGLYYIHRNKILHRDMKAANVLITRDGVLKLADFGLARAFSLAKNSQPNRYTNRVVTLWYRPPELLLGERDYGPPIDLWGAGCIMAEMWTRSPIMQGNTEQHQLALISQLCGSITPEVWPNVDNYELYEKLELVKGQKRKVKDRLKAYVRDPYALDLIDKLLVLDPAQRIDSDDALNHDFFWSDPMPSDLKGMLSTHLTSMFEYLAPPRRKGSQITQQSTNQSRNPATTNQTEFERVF
CDK9/Cyclin T1, sequence (O60563 whole entry partner): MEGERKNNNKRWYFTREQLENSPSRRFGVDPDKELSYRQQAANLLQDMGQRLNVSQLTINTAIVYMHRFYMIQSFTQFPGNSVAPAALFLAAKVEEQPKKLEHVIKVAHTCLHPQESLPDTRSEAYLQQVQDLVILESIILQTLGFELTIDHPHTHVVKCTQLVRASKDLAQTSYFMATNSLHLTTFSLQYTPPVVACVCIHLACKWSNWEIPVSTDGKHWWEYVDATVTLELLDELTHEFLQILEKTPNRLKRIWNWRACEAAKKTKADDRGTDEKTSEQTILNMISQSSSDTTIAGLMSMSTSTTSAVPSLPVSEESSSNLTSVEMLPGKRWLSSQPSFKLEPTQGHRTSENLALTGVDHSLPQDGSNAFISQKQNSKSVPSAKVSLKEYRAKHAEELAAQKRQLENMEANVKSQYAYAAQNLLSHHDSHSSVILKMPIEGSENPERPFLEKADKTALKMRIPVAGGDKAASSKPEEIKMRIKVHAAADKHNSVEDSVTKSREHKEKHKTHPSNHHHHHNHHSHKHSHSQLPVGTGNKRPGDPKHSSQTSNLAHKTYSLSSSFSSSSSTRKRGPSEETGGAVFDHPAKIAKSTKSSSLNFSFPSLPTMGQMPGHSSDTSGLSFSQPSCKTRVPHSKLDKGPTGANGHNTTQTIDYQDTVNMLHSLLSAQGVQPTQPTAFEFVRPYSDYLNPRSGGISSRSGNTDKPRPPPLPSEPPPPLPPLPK
CDK7/CycH/Mat1, sequence (P50613 whole entry): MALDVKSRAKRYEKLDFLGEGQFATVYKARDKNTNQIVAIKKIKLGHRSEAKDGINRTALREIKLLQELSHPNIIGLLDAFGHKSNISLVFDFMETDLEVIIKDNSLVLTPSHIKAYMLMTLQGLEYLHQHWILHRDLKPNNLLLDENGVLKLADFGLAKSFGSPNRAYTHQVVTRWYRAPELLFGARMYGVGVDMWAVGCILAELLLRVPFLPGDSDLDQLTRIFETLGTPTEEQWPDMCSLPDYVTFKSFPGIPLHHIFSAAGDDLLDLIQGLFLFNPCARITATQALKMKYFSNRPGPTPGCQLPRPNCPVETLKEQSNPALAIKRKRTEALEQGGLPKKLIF

Take `CC(C)c1cnn2c(NCc3ccccc3-n3cccn3)nc(OC3CCN(C)CC3)nc12` [(VII-73), N-(2-(1H-pyrazol-1-yl)benzyl)-8-isopropyl-2-((1-methylpiperidin-4-yl)oxy)pyrazolo[1,5-a][1,3,5]triazin-4-amine]: the IC50 is 500 to 2500 nM on CDK2/CycA, above 2500 nM at CDK9/Cyclin T1 and below 5 nM at CDK7/CycH/Mat1.

For `CC(C)c1cnn2c(NCc3ccccc3-n3cccn3)nc(N(C)CCN3CCCC3)nc12` [(VIII-045), N4-(2-(1H-pyrazol-1-yl)benzyl)-8-isopropyl-N2-methyl-N2-(2-(pyrrolidin-1-yl)ethyl)pyrazolo[1,5-a][1,3,5]triazine-2,4-diamine], the IC50 is above 2500 nM on CDK2/CycA, above 2500 nM on CDK9/Cyclin T1 and 10 to 25 nM on CDK7/CycH/Mat1.

Consider `CC(C)c1cnn2c(NCc3ccccc3-n3cccn3)nc(C(=O)N(C)CCN3CCOCC3)nc12` [(XII-06), 4-((2-(1H-pyrazol-1-yl)benzyl)amino)-8-isopropyl-N-methyl-N-(2-morpholinoethyl)pyrazolo[1,5-a][1,3,5]triazine-2-carboxamide], for which the IC50 on CDK2/CycA is 500 to 2500 nM; on CDK9/Cyclin T1 it was above 2500 nM; at CDK7/CycH/Mat1, above 25 nM.

Regarding `CC(C)c1cnn2c(NCc3ccccc3-n3cncn3)nc(OC3CCN(C)CC3)nc12` [(VII-74), N-(2-(1H-1,2,4-triazol-1-yl)benzyl)-8-isopropyl-2-((1-methylpiperidin-4-yl)oxy)pyrazolo[1,5-a][1,3,5]triazin-4-amine], the IC50 on CDK2/CycA was 50 to 500 nM; at CDK9/Cyclin T1, above 2500 nM; on CDK7/CycH/Mat1 it was below 5 nM.

`CC(C)c1cnn2c(NCc3ccccc3-n3cccn3)nc(NC3CCCNC3)nc12` (stereo not drawn) [(VIII-01), N4-(2-(1H-pyrazol-1-yl)benzyl)-8-isopropyl-N2-(piperidin-3-yl)pyrazolo[1,5-a][1,3,5]triazine-2,4-diamine]: the IC50 on CDK2/CycA is 50 to 500 nM; on CDK9/Cyclin T1, above 2500 nM; on CDK7/CycH/Mat1, below 5 nM.

Regarding `CNC1CCN(c2nc(NCc3ccccc3-n3cccn3)n3ncc(C(C)C)c3n2)CC1` [(VIII-25), N-(2-(1H-pyrazol-1-yl)benzyl)-8-isopropyl-2-(4-(methylamino)piperidin-1-yl)pyrazolo[1,5-a][1,3,5]triazin-4-amine], the IC50 at CDK2/CycA was 50 to 500 nM; on CDK9/Cyclin T1, 500 to 2500 nM; at CDK7/CycH/Mat1, below 5 nM.

On to `CC(C)Oc1ccccc1CNc1nc(O[C@@H]2CCCNC2)nc2c(C(C)C)cnn12` [(VII-18), (R)-N-(2-isopropoxybenzyl)-8-isopropyl-2-(piperidin-3-yloxy)pyrazolo[1,5-a][1,3,5]triazin-4-amine], for which the IC50 at CDK2/CycA is 50 to 500 nM; on CDK9/Cyclin T1, 500 to 2500 nM; on CDK7/CycH/Mat1 it was below 5 nM.

On to `CC(C)c1cnn2c(NCc3ccccc3OC3CCCC3)nc(O[C@@H]3CCCNC3)nc12` [(VII-095), (R)-N-(2-(cyclopentyloxy)benzyl)-8-isopropyl-2-(piperidin-3-yloxy)pyrazolo[1,5-a][1,3,5]triazin-4-amine], for which the figures for the IC50 on CDK2/CycA, on CDK9/Cyclin T1 and on CDK7/CycH/Mat1 were above 2500 nM, above 2500 nM and above 25 nM, respectively.

Consider `CC(C)c1cnn2c(NCc3ccccc3-n3cccn3)nc(CNCCN3CCCC3)nc12` [(XXX-4), N-(2-(1H-pyrazol-1-yl)benzyl)-8-isopropyl-2-(((2-(pyrrolidin-1-yl)ethyl)amino)methyl)pyrazolo[1,5-a][1,3,5]triazin-4-amine], for which the IC50 is above 2500 nM at CDK2/CycA, above 2500 nM at CDK9/Cyclin T1 and above 25 nM on CDK7/CycH/Mat1.

As for `CC(C)c1cnn2c(NCc3ccc(F)cc3-n3cccn3)nc(O[C@@H]3CCCNC3)nc12` [(VII-43), (R)-N-(4-fluoro-2-(1H-pyrazol-1-yl)benzyl)-8-isopropyl-2-(piperidin-3-yloxy)pyrazolo[1,5-a][1,3,5]triazin-4-amine], the IC50 on CDK2/CycA is below 50 nM; on CDK9/Cyclin T1, 50 to 500 nM; at CDK7/CycH/Mat1, below 5 nM.

Take `CC(C)c1cnn2c(NCc3ccccc3-n3cccn3)nc(S(=O)(=O)C3CCNCC3)nc12` [(X-7), N-(2-(1H-pyrazol-1-yl)benzyl)-8-isopropyl-2-(piperidin-4-ylsulfonyl)pyrazolo[1,5-a][1,3,5]triazin-4-amine]: the values for the IC50 at CDK2/CycA, at CDK9/Cyclin T1 and on CDK7/CycH/Mat1 were above 2500 nM, above 2500 nM and below 5 nM, respectively.

Take `CC(C)c1cnn2c(NCc3ccccc3-c3cccs3)nc(OC3CCN(C)CC3)nc12` [(VII-65), 8-isopropyl-2-((1-methylpiperidin-4-yl)oxy)-N-(2-(thiophen-2-yl)benzyl)pyrazolo[1,5-a][1,3,5]triazin-4-amine]: the values for the IC50 at CDK2/CycA, at CDK9/Cyclin T1 and at CDK7/CycH/Mat1 were 50 to 500 nM, above 2500 nM and below 5 nM, respectively.

With `CC(C)c1cnn2c(NCc3ccccc3-n3cccn3)nc(N(C)CCCN3CCCCC3)nc12` [(VIII-049), N4-(2-(1H-pyrazol-1-yl)benzyl)-8-isopropyl-N2-methyl-N2-(3-(piperidin-1-yl)propyl)pyrazolo[1,5-a][1,3,5]triazine-2,4-diamine], the IC50 is above 2500 nM on CDK2/CycA, above 2500 nM on CDK9/Cyclin T1 and above 25 nM at CDK7/CycH/Mat1.

As for `CC(C)c1cnn2c(NCc3ccccc3-c3cccs3)nc(OC3CCNCC3)nc12` [(VII-14), 8-isopropyl-2-(piperidin-4-yloxy)-N-(2-(thiophen-2-yl)benzyl)pyrazolo[1,5-a][1,3,5]triazin-4-amine], the IC50 on CDK2/CycA is 50 to 500 nM; on CDK9/Cyclin T1 it was 500 to 2500 nM; at CDK7/CycH/Mat1 it was below 5 nM.

For the compound `Cc1ccc(CNc2nc(O[C@@H]3CCCNC3)nc3c(C(C)C)cnn23)c(OCC(C)C)c1` [(VII-115), (R)-N-(2-isobutoxy-4-methylbenzyl)-8-isopropyl-2-(piperidin-3-yloxy)pyrazolo[1,5-a][1,3,5]triazin-4-amine], the IC50 is above 2500 nM on CDK2/CycA, above 2500 nM at CDK9/Cyclin T1 and above 25 nM at CDK7/CycH/Mat1.

For the compound `CC(C)c1cnn2c(NCc3ccccc3-n3cccn3)nc(C(=O)NCCCN)nc12` [(XII-10), 4-((2-(1H-pyrazol-1-yl)benzyl)amino)-N-(3-aminopropyl)-8-isopropylpyrazolo[1,5-a][1,3,5]triazine-2-carboxamide], the values for the IC50 at CDK2/CycA, at CDK9/Cyclin T1 and at CDK7/CycH/Mat1 were above 2500 nM, above 2500 nM and above 25 nM, respectively.

As to `CC(C)c1cnn2c(NCc3ccccc3-n3cccn3)nc(N3CC(N4CCC(F)(F)C4)C3)nc12` [(VIII-041), N-(2-(1H-pyrazol-1-yl)benzyl)-2-(3-(3,3-difluoropyrrolidin-1-yl)azetidin-1-yl)-8-isopropylpyrazolo[1,5-a][1,3,5]triazin-4-amine], the values for the IC50 at CDK2/CycA, on CDK9/Cyclin T1 and at CDK7/CycH/Mat1 were above 2500 nM, above 2500 nM and above 25 nM, respectively.

Regarding `CC(C)c1cnn2c(NCc3ccccc3N=S(C)(C)=O)nc(O[C@@H]3CCCNC3)nc12` [(VII-151), N-(2-(((8-isopropyl-2-((R)-piperidin-3-yloxy)pyrazolo[1,5-a][1,3,5]triazin-4-yl)amino)methyl)phenyl)-S,S-dimethylsulfoximine], the figures for the IC50 on CDK2/CycA, on CDK9/Cyclin T1 and on CDK7/CycH/Mat1 were 500 to 2500 nM, above 2500 nM and below 5 nM, respectively.

`CC(C)c1cnn2c(NCc3ccccc3-n3cccn3)nc(CN3CC(N4CCCC4=O)C3)nc12` [(XXX-8), 1-(1-((4-((2-(1H-pyrazol-1-yl)benzyl)amino)-8-isopropylpyrazolo[1,5-a][1,3,5]triazin-2-yl)methyl)azetidin-3-yl)pyrrolidin-2-one]: the figures for the IC50 on CDK2/CycA, on CDK9/Cyclin T1 and on CDK7/CycH/Mat1 were above 2500 nM, above 2500 nM and above 25 nM, respectively.

Turning to `CC(C)c1cnn2c(NCc3ccccc3-n3cccn3)nc(C(=O)NCC3CCNCC3)nc12` [(XII-1), 4-((2-(1H-pyrazol-1-yl)benzyl)amino)-8-isopropyl-N-(piperidin-4-ylmethyl)pyrazolo[1,5-a][1,3,5]triazine-2-carboxamide], the results for the IC50 on CDK2/CycA, at CDK9/Cyclin T1 and on CDK7/CycH/Mat1 were above 2500 nM, above 2500 nM and below 5 nM, respectively.

In the case of `CCNC(=O)Nc1ccccc1CNc1nc(O[C@@H]2CCCNC2)nc2c(C(C)C)cnn12` [(VII-114), (R)-1-ethyl-3-(2-(((8-isopropyl-2-(piperidin-3-yloxy)pyrazolo[1,5-a][1,3,5]triazin-4-yl)amino)methyl)phenyl)urea], the results for the IC50 at CDK2/CycA, at CDK9/Cyclin T1 and on CDK7/CycH/Mat1 were above 2500 nM, above 2500 nM and below 5 nM, respectively.
